Results taken from patent publication US9249157B2, “Tricyclic heterocycle compounds” (BRISTOL-MYERS SQUIBB COMPANY, priority 2012, dated 2016).
pIC50: −log10 of the molar value.

What was measured:
human tumor xenografts = assay: Human Tumor Xenograft Models in Mice (tumor type not stated); assay type: in vivo; settings: for antitumor activity with oral administration (PO): Human Tumor Xenograft Models in mice
Excerpt: Human Tumor Xenograft Models in Mice
All rodents were obtained from Harlan Sprague Dawley Co. (Indianapolis, Ind.), and maintained in an ammonia-free environment in a defined and pathogen—free colony. All mice were quarantined approximately 1 week prior to their use for tumor propagation and drug efficacy testing. Mice were fed food and water ad libitum. The animal care program of Bristol-Myers Squibb Pharmaceutical Research Institute is fully accredited by the American Association for Accreditation of Laboratory Animal Care (AAALAC). All experiments were performed in accordance with Bristol-Myers Squibb (BMS) animal test methods and guidelines.
Tumor xenografts were grown and maintained subcutaneously (SC) in immunocompromized balb/c nu/nu nude or NOD-SCID mice (Harlan Sprague Dawley). Tumors were propagated as subcutaneous transplants in the appropriate mouse strain (Table 10) using tumor fragments obtained from donor mice.
The required numbers of animals needed to detect a meaningful response were pooled at the start of the experiment and each was given a subcutaneous implant of a tumor fragment (˜20 mg) with a 13-gauge trocar. Tumors were allowed to grow to the pre-determined size window (tumors outside the range were excluded) and animals were evenly distributed to various treatment and control groups. […]
Tumor response was determined by measurement of tumors with a caliper twice a week, until the tumors reached a predetermined “target” size of 0.5 gm or 1 gm depending on the tumor type. […]
Tumor response criteria are expressed in terms of tumor growth inhibition (% TGI). […] For this purpose, the tumor weight of a group is expressed as medium tumor weight (MTW).
Whenever possible, antitumor activity was determined at a range of dose levels up to the maximum tolerated dose (MTD) which is defined as the dose level immediately below which excessive toxicity (i.e., more than one death) occurred. When death occurred, the day of death was recorded. […]

human Notch 3 = assay: Notch-CBF1 Transactivation Assay (Notch 3); assay type: cell-based; settings: HeLa cells transfected with truncated Notch 3 and CBF1 luciferase reporter; 18 hours incubation
Excerpt: (§1) Notch-CBF1 Transactivation Assay
(§2) The Notch-CBF1 (C-promoter binding factor I) cell based transactivation assay is based on the ability of the released Notch intracellular domain fragments (NICDs) to function as transcription factors in conjunction with CBF1 and other nuclear factors. Luciferase assays were used to measure the antagonism of Notch-CBF1 transcriptional activity. HeLa cervical cancer cells are transiently co-transfected with pCDNA3.1/Hygro plasmids containing truncated Notch 1, Notch 2, Notch 3, or Notch 4 receptors and a PGL3 luciferase reporter vector containing 4 copies of CBF1 binding site. The cells were then tested for Notch-CBF1 activity in the absence or presence of test compounds. HeLa cells, maintained in DMEM (high glucose with HEPES), 1× glutamine/penicillin/streptomycin and 10% Fetal Bovine serum, were transiently transfected in a T175 Flask (4.5×10^6 cells/flask) using the Monster Transfection Kit (Minis #MIR2906) according to manufacturers specifications. Table 1 denotes respective DNA quantity for the transfections.
(§3) Six hours post-transfection, cells were trypsinized and plated into a 384-well black Poly-D-lysine coated tissue culture plate at a density of 5×10^3 cells/well in 95 μL assay media (DMEM (high glucose with HEPES), 1× glutamine/penicillin/streptomycin, 0.0125% BSA, 1× non-essential amino acids). Assay media (5 μL) containing test compounds in final concentrations ranging from 5 μM to 8.4×10^−5 μM (3 fold serial dilutions) were added to the cells and the cell plates were then incubated for 18 hours at 37° C. and 5% CO2. Control wells contained DMSO vehicle (total counts) or 0.5 μM of an in-house small molecule inhibitor (background counts). Duplicates were used for each sample. Luciferase activity was measured after a 20-minute incubation with 50 μl STEADY-GLO® luciferase reagents according to manufacturer's specifications (Promega, Cat. #E2550) and analyzed by Envision plate reader (PerkinElmer, Boston, Mass.).
(§4) The antagonist effect of compounds was expressed as 100×[1−(average sample−average background)/(average total−average background)] where sample is the luciferase activity in the presence of test compound, background is equal to the luciferase activity in the presence of the small molecule inhibitor control and the total is signal induced in DMSO wells.

human Notch 1 = assay: Notch-CBF1 Transactivation Assay (Notch 1); assay type: cell-based; settings: HeLa cells transfected with truncated Notch 1 and CBF1 luciferase reporter; 18 hours incubation
Excerpt: as §1, §2, §3, §4

| SMILES | antitumor activity with oral administration (PO) (human tumor xenografts) | antitumor activity, intravenous route (IV) (human tumor xenografts; human tumor xenografts implanted in mice, IV) | pIC50 (human Notch 3) | pIC50 (human Notch 1) |
| --- | --- | --- | --- | --- |
| Cc1nocc1[C@H](C(N)=O)[C@@H](CCC(F)(F)F)C(=O)N[C@H]1N=C(c2ccccc2)c2cccc3c2N(CC(F)(F)CO3)C1=O [Example 1, (2R,3R)—N-((7S)-3,3-Difluoro-6-oxo-9-phenyl-3,4,6,7-tetrahydro-2H-[1,4]diazepino[1,7,6-ef][1,5]benzoxazepin-7-yl)-3-(3-methyl-4-isoxazolyl)-2-(3,3,3-trifluoropropyl)succinamide] | showed antitumor activity | exhibited antitumor activity | – | – |
| NC(=O)[C@@H](CC1CC1)[C@@H](CCC(F)(F)F)C(=O)N[C@H]1N=C(c2ccccc2)c2cccc3c2N(CC(F)(F)CO3)C1=O [Example 2, (2R,3S)-3-(Cyclopropylmethyl)-N-((7S)-3,3-difluoro-6-oxo-9-phenyl-3,4,6,7-tetrahydro-2H-[1,4]diazepino[1,7,6-ef][1,5]benzoxazepin-7-yl)-2-(3,3,3-trifluoropropyl)succinamide] | showed antitumor activity | – | – | – |
| NC(=O)[C@@H](CC1CC1)[C@@H](CCC(F)(F)F)C(=O)N[C@H]1N=C(c2ccccc2)c2cccc3c2N(CCO3)C1=O [Example 6, (2R,3S)-3-(Cyclopropylmethyl)-N-((6S)-5-oxo-8-phenyl-2,3,5,6-tetrahydro[1,4]oxazino[2,3,4-jk][1,4]benzodiazepin-6-yl)-2-(3,3,3-trifluoropropyl)succinamide] | – | – | 7.83 | – |
| NC(=O)[C@@H](CCCF)[C@@H](CCC(F)(F)F)C(=O)N[C@H]1N=C(c2ccccc2)c2cccc3c2N(CCO3)C1=O [Example 8, (2R,3S)-3-(3-Fluoropropyl)-N-((6S)-5-oxo-8-phenyl-2,3,5,6-tetrahydro[1,4]oxazino[2,3,4-jk][1,4]benzodiazepin-6-yl)-2-(3,3,3-trifluoropropyl)succinamide] | – | – | 7.55 | 7.83 |
| Cc1cccc(C2=N[C@H](NC(=O)[C@H](CCC(F)(F)F)[C@H](CCC(F)(F)F)C(N)=O)C(=O)N3CCOc4cccc2c43)c1 [Example 11, (2R,3S)—N-((6S)-8-(3-Methylphenyl)-5-oxo-2,3,5,6-tetrahydro[1,4]oxazino[2,3,4-jk][1,4]benzodiazepin-6-yl)-2,3-bis(3,3,3-trifluoropropyl)succinamide] | – | – | 7.83 | – |
| Cc1cccc(C2=N[C@H](NC(=O)[C@H](CCC(F)(F)F)[C@@H](C(N)=O)c3ccccc3)C(=O)N3CCOc4cccc2c43)c1 [Example 13, (2R,3R)—N-((6S)-8-(3-Methylphenyl)-5-oxo-2,3,5,6-tetrahydro[1,4]oxazino[2,3,4-jk][1,4]benzodiazepin-6-yl)-3-phenyl-2-(3,3,3-trifluoropropyl)succinamide] | – | – | – | 7.83 |
| CCC[C@H](C(N)=O)[C@@H](CCC(F)(F)F)C(=O)N[C@H]1N=C(c2cccc(Cl)c2)c2cccc3c2N(CCO3)C1=O [Example 15, (2R,3S)—N-((6S)-8-(3-Chlorophenyl)-5-oxo-2,3,5,6-tetrahydro[1,4]oxazino[2,3,4-jk][1,4]benzodiazepin-6-yl)-3-propyl-2-(3,3,3-trifluoropropyl)succinamide] | – | – | 7.55 | 7.77 |
| CCC[C@@H](C(=O)N[C@H]1N=C(c2ccccc2)c2cccc3c2N(CCO3)C1=O)[C@H](CCC(F)(F)F)C(N)=O [Example 17, (2R,3S)—N-((6S)-5-Oxo-8-phenyl-2,3,5,6-tetrahydro[1,4]oxazino[2,3,4-jk][1,4]benzodiazepin-6-yl)-2-propyl-3-(3,3,3-trifluoropropyl)succinamide] | – | – | 7.70 | 7.86 |
| NC(=O)[C@@H](CC1CC1)[C@@H](CC1CC1)C(=O)N[C@H]1N=C(c2ccccc2)c2cccc3c2N(CCO3)C1=O [Example 18, (2R,3S)-2,3-Bis(cyclopropylmethyl)-N-((6S)-5-oxo-8-phenyl-2,3,5,6-tetrahydro[1,4]oxazino[2,3,4-jk][1,4]benzodiazepin-6-yl)succinamide] | – | – | 7.79 | 7.66 |
| NC(=O)[C@@H](CC1CC1)[C@@H](CCC(F)(F)F)C(=O)N[C@H]1N=C(c2ccccc2)c2cccc3c2N(CCCO3)C1=O [Example 23, (2R,3S)-3-(Cyclopropylmethyl)-N-((7S)-6-oxo-9-phenyl-3,4,6,7-tetrahydro-2H-[1,4]diazepino[1,7,6-ef][1,5]benzoxazepin-7-yl)-2-(3,3,3-trifluoropropyl)succinamide] | – | – | 7.85 | – |
| Cc1nocc1[C@H](C(N)=O)[C@@H](CCC(F)(F)F)C(=O)N[C@H]1N=C(c2ccccc2)c2cccc3c2N(CCN3)C1=O [Example 24, (2R,3R)-3-(3-Methyl-4-isoxazolyl)-N-((6S)-5-oxo-8-phenyl-2,3,5,6-tetrahydro-1H-[1,4]diazepino[1,7,6-de]quinoxalin-6-yl)-2-(3,3,3-trifluoropropyl)succinamide] | – | – | 7.55 | 7.77 |
| CCC[C@H](C(N)=O)[C@@H](CCC(F)(F)F)C(=O)N[C@H]1N=C(c2ccccc2)c2cccc3c2N(CCN3)C1=O [Example 25, (2R,3S)—N-((6S)-5-Oxo-8-phenyl-2,3,5,6-tetrahydro-1H-[1,4]diazepino[1,7,6-de]quinoxalin-6-yl)-3-propyl-2-(3,3,3-trifluoropropyl)succinamide] | – | – | 7.77 | 7.84 |
| NC(=O)[C@@H](c1ccccc1)[C@@H](CCC(F)(F)F)C(=O)N[C@H]1N=C(c2ccccc2)c2cccc3c2N(CCN3)C1=O [Example 27, (2R,3R)—N-((6S)-5-Oxo-8-phenyl-2,3,5,6-tetrahydro-1H-[1,4]diazepino[1,7,6-de]quinoxalin-6-yl)-3-phenyl-2-(3,3,3-trifluoropropyl)succinamide] | – | – | – | 7.82 |
